Assay results published in patent publication US9458124B2, “Substituted pyran derivatives” (Wayne State University, priority 2013, dated 2016).
Counter-ions that a name gives are not always drawn.

Experiments:
DAT = molecular target: T1, DAT (Rattus norvegicus, UniProt P23977); assay: DAT uptake inhibition, [3H]DA, rat brain; assay type: biochemical; details: number in parentheses within cell
T1 construct: from tissue; host or cells: rat brain

SERT = molecular target: T2, SERT (Rattus norvegicus, UniProt P31652); assay: SERT uptake inhibition, [3H]-5-HT, rat brain; assay type: biochemical; details: number in parentheses within cell
T2 construct: from tissue; host or cells: rat brain

NET = molecular target: T3, NET (Rattus norvegicus, UniProt Q63380); assay: NET uptake inhibition, [3H]DA, rat brain; assay type: biochemical; details: number in parentheses within cell
T3 construct: from tissue; host or cells: rat brain
T3 sequence (Q63380 1-617): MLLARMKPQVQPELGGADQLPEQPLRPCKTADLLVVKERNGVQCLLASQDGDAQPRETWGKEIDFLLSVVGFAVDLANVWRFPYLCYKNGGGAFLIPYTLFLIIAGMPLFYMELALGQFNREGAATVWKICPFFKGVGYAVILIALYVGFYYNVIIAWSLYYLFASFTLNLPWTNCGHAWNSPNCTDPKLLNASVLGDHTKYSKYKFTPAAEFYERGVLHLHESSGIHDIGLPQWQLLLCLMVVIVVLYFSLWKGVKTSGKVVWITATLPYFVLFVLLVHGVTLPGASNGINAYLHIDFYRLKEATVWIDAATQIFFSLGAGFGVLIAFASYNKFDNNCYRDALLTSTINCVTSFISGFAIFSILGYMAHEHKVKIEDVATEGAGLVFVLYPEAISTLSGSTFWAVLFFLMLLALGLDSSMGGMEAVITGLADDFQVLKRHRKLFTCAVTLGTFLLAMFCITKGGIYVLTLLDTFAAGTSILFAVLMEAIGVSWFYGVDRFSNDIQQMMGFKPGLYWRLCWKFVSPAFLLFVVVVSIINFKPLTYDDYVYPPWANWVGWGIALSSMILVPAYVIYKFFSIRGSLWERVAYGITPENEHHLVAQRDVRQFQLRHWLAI

T1 sequence (P23977 whole entry): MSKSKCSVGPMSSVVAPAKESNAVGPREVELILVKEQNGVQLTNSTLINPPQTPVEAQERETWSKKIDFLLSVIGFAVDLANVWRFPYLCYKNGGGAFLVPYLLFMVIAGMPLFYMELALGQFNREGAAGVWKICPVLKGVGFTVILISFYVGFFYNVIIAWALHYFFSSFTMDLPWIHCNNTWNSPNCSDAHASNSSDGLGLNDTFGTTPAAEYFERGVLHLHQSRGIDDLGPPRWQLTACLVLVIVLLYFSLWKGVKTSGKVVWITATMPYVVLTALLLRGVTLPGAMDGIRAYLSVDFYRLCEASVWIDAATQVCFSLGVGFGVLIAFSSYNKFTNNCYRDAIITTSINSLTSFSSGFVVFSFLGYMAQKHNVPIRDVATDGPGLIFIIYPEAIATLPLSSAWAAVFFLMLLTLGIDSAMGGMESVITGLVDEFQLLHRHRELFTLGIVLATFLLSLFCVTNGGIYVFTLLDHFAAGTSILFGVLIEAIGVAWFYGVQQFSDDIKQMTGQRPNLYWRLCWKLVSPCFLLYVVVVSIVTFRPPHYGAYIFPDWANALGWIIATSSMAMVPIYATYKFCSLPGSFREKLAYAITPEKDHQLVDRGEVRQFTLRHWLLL
T2 sequence (P31652 whole entry): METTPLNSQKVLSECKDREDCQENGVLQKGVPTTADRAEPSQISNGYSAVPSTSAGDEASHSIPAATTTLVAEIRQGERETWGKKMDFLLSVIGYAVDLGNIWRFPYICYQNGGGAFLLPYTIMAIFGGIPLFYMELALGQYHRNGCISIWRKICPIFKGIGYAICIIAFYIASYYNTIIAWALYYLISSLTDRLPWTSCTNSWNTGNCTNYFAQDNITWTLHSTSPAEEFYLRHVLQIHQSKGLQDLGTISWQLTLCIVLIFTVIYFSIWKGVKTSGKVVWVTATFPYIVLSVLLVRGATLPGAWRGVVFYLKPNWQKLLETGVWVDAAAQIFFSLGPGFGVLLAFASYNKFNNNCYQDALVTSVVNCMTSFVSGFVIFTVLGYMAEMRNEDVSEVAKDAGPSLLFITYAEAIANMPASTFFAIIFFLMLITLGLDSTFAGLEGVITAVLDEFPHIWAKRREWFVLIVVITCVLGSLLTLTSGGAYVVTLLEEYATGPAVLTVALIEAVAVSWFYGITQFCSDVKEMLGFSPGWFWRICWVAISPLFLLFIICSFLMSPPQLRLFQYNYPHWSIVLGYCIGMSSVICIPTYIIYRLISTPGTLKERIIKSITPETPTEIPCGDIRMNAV

c1ccc(C(c2ccccc2)[C@@H]2CC[C@H](NCc3ccc4occc4c3)CO2)cc1 (as salt: hydrochloride) [2a, D-484, (3S,6S)-6-benzhydryl-N-(benzofuran-5-ylmethyl)tetrahydro-2H-pyran-3-amine]
melting point: 140 to 142 °C

CN(C)c1ccc(CN[C@@H]2CO[C@H](C(c3ccc(F)cc3)c3ccc(F)cc3)C[C@H]2O)cc1 [6o, D-536, (2S,4R,5R)-2-(bis(4-fluorophenyl)methyl)-5-((4-(dimethylamino)benzyl)amino)tetrahydro-2H-pyran-4-ol]
Ki (DAT): 41.3 ± 9.7 nM | Ki (SERT): 144 ± 26 nM | Ki (NET): 56.6 ± 5.2 nM

COc1ccc(CN[C@@H]2CO[C@H](C(c3ccc(F)cc3)c3ccc(F)cc3)C[C@H]2O)cc1 [6a, D-473, (2S,4R,5R)-2-(bis(4-fluorophenyl)methyl)-5-((4-methoxybenzyl)amino)tetrahydro-2H-pyran-4-ol]
Ki (DAT): 13.3 ± 2 nM | Ki (SERT): 46.7 ± 17 nM | Ki (NET): 13.2 ± 3.5 nM

COc1ccc(CN[C@@H]2CO[C@H](C(c3ccccc3)c3ccccc3)C[C@H]2O)cc1O [4d, D-502, (2S,4R,5R)-2-benzhydryl-5-((3-hydroxy-4-methoxybenzyl)amino)tetrahydro-2H-pyran-4-ol]
Ki (DAT): 58.6 ± 11.8 nM | Ki (SERT): 281 ± 37 nM

COc1cc(CN[C@@H]2CO[C@H](C(c3ccccc3)c3ccccc3)C[C@H]2O)ccc1O [4c, D-501, (2S,4R,5R)-2-benzhydryl-5-((4-hydroxy-3-methoxybenzyl)amino)tetrahydro-2H-pyran-4-ol]
Ki (DAT): 167 ± 36 nM

CCNc1ccc(CN[C@@H]2CO[C@H](C(c3ccc(F)cc3)c3ccc(F)cc3)C[C@H]2O)cc1 [6m, D-530, (2S,4R,5R)-2-(bis(4-fluorophenyl)methyl)-5-((4-(ethylamino)benzyl)amino) tetrahydro-2H-pyran-4-ol]
Ki (SERT): 320 ± 40 nM

O[C@@H]1C[C@@H](C(c2ccccc2)c2ccccc2)OC[C@H]1NCc1ccc2cc[nH]c2c1 [4b, D-544, (2S,4R,5R)-5-(((1H-indol-6-yl)methyl)amino)-2-benzhydryltetrahydro-2H-pyran-4-ol]
Ki (DAT): 64 ± 6.1 nM | Ki (SERT): 9.6 ± 2.57 nM | Ki (NET): 10 ± 3.5 nM

COc1ccc(CN[C@@H]2CO[C@H](C(c3ccc(F)cc3)c3ccc(F)cc3)C[C@H]2O)cc1O [6i, D-528, (2S,4R,5R)-2-(bis(4-fluorophenyl)methyl)-5-((3-hydroxy-4-methoxybenzyl)amino)tetrahydro-2H-pyran-4-ol]
Ki (DAT): 7.94 ± 0.66 nM | Ki (SERT): 367 ± 52 nM

O[C@@H]1C[C@@H](C(c2ccc(F)cc2)c2ccc(F)cc2)OC[C@H]1NCc1ccc2c(c1)OCO2 [6b, D-506, (2S,4R,5R)-5-((benzo[d][1,3]dioxol-5-ylmethyl)amino)-2-(bis(4-fluorophenyl)methyl)tetrahydro-2H-pyran-4-ol]
Ki (DAT): 37 ± 7.5 nM

c1ccc(C(c2ccccc2)[C@@H]2CC[C@H](NCc3ccc4cc[nH]c4c3)CO2)cc1 [2b, D-543]
Ki (DAT): 56.3 ± 1.1 nM | Ki (SERT): 13.6 ± 1.6 nM | Ki (NET): 20.8 ± 4.6 nM

O[C@@H]1C[C@@H](C(c2ccc(F)cc2)c2ccc(F)cc2)OC[C@H]1NCc1ccc2c(c1)CCO2 [6c, D-507, (2S,4R,5R)-2-(bis(4-fluorophenyl)methyl)-5-(((2,3-dihydrobenzofuran-5-yl)methyl)amino)tetrahydro-2H-pyran-4-ol]
Ki (DAT): 17 nM | Ki (SERT): 54 ± 7.8 nM | Ki (NET): 25.8 ± 5 nM

COc1cc(CN[C@@H]2CO[C@H](C(c3ccc(F)cc3)c3ccc(F)cc3)C[C@H]2O)ccc1O [6h, D-527, (2S,4R,5R)-2-(bis(4-fluorophenyl)methyl)-5-((4-hydroxy-3-methoxybenzyl)amino)tetrahydro-2H-pyran-4-ol]
Ki (DAT): 8.94 ± 2.2 nM | Ki (SERT): 107 ± 11 nM

COc1ccc(CN[C@@H]2CO[C@H](C(c3ccc(F)cc3)c3ccc(F)cc3)C[C@H]2O)cn1 [6p, D-537, (2S,4R,5R)-2-(bis(4-fluorophenyl)methyl)-5-(((6-methoxypyridin-3-yl)methyl)amino)tetrahydro-2H-pyran-4-ol]
Ki (DAT): 20.1 ± 5.3 nM | Ki (SERT): 258 ± 26 nM | Ki (NET): 28.4 ± 4 nM

COc1cccc(CN[C@@H]2CO[C@H](C(c3ccc(F)cc3)c3ccc(F)cc3)C[C@H]2O)c1 [6e, D-524, (2S,4R,5R)-2-(bis(4-fluorophenyl)methyl)-5-((3-methoxybenzyl)amino)tetrahydro-2H-pyran-4-ol]
Ki (DAT): 56.8 ± 7.6 nM | Ki (SERT): 129 ± 25 nM

c1ccc(C(c2ccccc2)[C@@H]2CC[C@H](NCc3ccc4occc4c3)CO2)cc1 [2a, D-484, (3S,6S)-6-benzhydryl-N-(benzofuran-5-ylmethyl)tetrahydro-2H-pyran-3-amine]
Ki (DAT): 81.9 ± 17.9 nM | Ki (SERT): 0.71 ± 0.085 nM | Ki (NET): 25.2 ± 5.3 nM

COc1cccc(CN[C@@H]2CO[C@H](C(c3ccccc3)c3ccccc3)C[C@H]2O)c1 (as salt: hydrochloride) [4g, D-523, (2S,4R,5R)-2-benzhydryl-5-((3-methoxybenzyl)amino)tetrahydro-2H-pyran-4-ol]
melting point: 197 to 199 °C

Oc1ccc(CN[C@@H]2CO[C@H](C(c3ccc(F)cc3)c3ccc(F)cc3)C[C@H]2O)cc1F [6n, D-531, (2S,4R,5R)-2-(bis(4-fluorophenyl)methyl)-5-((3-fluoro-4-hydroxybenzyl)amino) tetrahydro-2H-pyran-4-ol]
Ki (SERT): 334 ± 54 nM

O[C@@H]1C[C@@H](C(c2ccccc2)c2ccccc2)OC[C@H]1NCc1ccc2cc[nH]c2c1 (as salt: oxalate) [4b, D-544, (2S,4R,5R)-5-(((1H-indol-6-yl)methyl)amino)-2-benzhydryltetrahydro-2H-pyran-4-ol]
melting point: 152 to 154 °C

COc1ccc(CN[C@@H]2CO[C@H](C(c3ccccc3)c3ccccc3)C[C@H]2O)cc1O (as salt: hydrochloride) [4d, D-502, (2S,4R,5R)-2-benzhydryl-5-((3-hydroxy-4-methoxybenzyl)amino)tetrahydro-2H-pyran-4-ol]
melting point: 168 to 170 °C

O[C@@H]1C[C@@H](C(c2ccccc2)c2ccccc2)OC[C@H]1NCc1ccc2occc2c1 (as salt: hydrochloride) [4a, D-485, (2S,4R,5R)-2-benzhydryl-5-((benzofuran-5-ylmethyl)amino)tetrahydro-2H-pyran-4-ol]
melting point: 204 to 206 °C

COc1cc(O)cc(CN[C@@H]2CO[C@H](C(c3ccc(F)cc3)c3ccc(F)cc3)C[C@H]2O)c1 [6g, D-526, (2S,4R,5R)-2-(bis(4-fluorophenyl)methyl)-5-((3-hydroxy-5-methoxybenzyl)amino)tetrahydro-2H-pyran-4-ol]
Ki (DAT): 25.6 ± 5.8 nM | Ki (SERT): 577 ± 94 nM

COc1cc(CN[C@@H]2CO[C@H](C(c3ccccc3)c3ccccc3)C[C@H]2O)ccc1O (as salt: hydrochloride) [4c, D-501, (2S,4R,5R)-2-benzhydryl-5-((4-hydroxy-3-methoxybenzyl)amino)tetrahydro-2H-pyran-4-ol]
melting point: 203 to 205 °C

COc1cc(O)cc(CN[C@@H]2CO[C@H](C(c3ccccc3)c3ccccc3)C[C@H]2O)c1 (as salt: hydrochloride) [4e, D-503, (2S,4R,5R)-2-benzhydryl-5-((3-hydroxy-5-methoxybenzyl)amino)tetrahydro-2H-pyran-4-ol]
melting point: 160 to 162 °C

COc1cc(O)cc(CN[C@@H]2CO[C@H](C(c3ccccc3)c3ccccc3)C[C@H]2O)c1 [4e, D-503, (2S,4R,5R)-2-benzhydryl-5-((3-hydroxy-5-methoxybenzyl)amino)tetrahydro-2H-pyran-4-ol]
Ki (DAT): 209 ± 25 nM | Ki (SERT): 385 ± 42 nM

O[C@@H]1C[C@@H](C(c2ccc(F)cc2)c2ccc(F)cc2)OC[C@H]1NCc1ccc2occc2c1 [6d, D-508, (2S,4R,5R)-5-((benzofuran-5-ylmethyl)amino)-2-(bis(4-fluorophenyl)methyl)tetrahydro-2H-pyran-4-ol]
Ki (DAT): 29.3 ± 2.4 nM | Ki (SERT): 68.4 ± 11.4 nM | Ki (NET): 26.5 ± 6.6 nM

COc1cccc(CN[C@@H]2CO[C@H](C(c3ccccc3)c3ccccc3)C[C@H]2O)c1 [4g, D-523, (2S,4R,5R)-2-benzhydryl-5-((3-methoxybenzyl)amino)tetrahydro-2H-pyran-4-ol]
Ki (DAT): 376 ± 68 nM | Ki (SERT): 27.2 ± 3 nM | Ki (NET): 5.85 ± 1.27 nM

Oc1cc(O)cc(CN[C@@H]2CO[C@H](C(c3ccccc3)c3ccccc3)C[C@H]2O)c1 (as salt: hydrochloride) [4f, D-542, 5-((((3R,4R,6S)-6-benzhydryl-4-hydroxytetrahydro-2H-pyran-3-yl)amino)methyl)benzene-1,3-diol]
melting point: 168 to 170 °C

c1ccc(C(c2ccccc2)[C@@H]2CC[C@H](NCc3ccc4cc[nH]c4c3)CO2)cc1 (as salt: oxalate) [2b, D-543]
melting point: 194 to 196 °C

Nc1ccc(CN[C@@H]2CO[C@H](C(c3ccc(F)cc3)c3ccc(F)cc3)C[C@H]2O)cc1 [6k, D-529, (2S,4R,5R)-5-((4-aminobenzyl)amino)-2-(bis(4-fluorophenyl)methyl) tetrahydro-2H-pyran-4-ol]
Ki (DAT): 24.5 ± 1.2 nM | Ki (SERT): 339 ± 39 nM

Oc1cc(O)cc(CN[C@@H]2CO[C@H](C(c3ccccc3)c3ccccc3)C[C@H]2O)c1 [4f, D-542, 5-((((3R,4R,6S)-6-benzhydryl-4-hydroxytetrahydro-2H-pyran-3-yl)amino)methyl)benzene-1,3-diol]
Ki (DAT): 259 ± 44 nM | Ki (SERT): 3020 nM | Ki (NET): 152 ± 29 nM

O[C@@H]1C[C@@H](C(c2ccccc2)c2ccccc2)OC[C@H]1NCc1ccc2occc2c1 [4a, D-485, (2S,4R,5R)-2-benzhydryl-5-((benzofuran-5-ylmethyl)amino)tetrahydro-2H-pyran-4-ol]
Ki (DAT): 234 ± 11 nM | Ki (SERT): 2.68 ± 0.094 nM | Ki (NET): 33.6 ± 18.7 nM
